Experimental data as given in ChEMBL document CHEMBL1129089, “N-(substituted-phenyl) piperazines: antagonists with high binding and functional selectivity for dopamine D4 receptors” (Bioorg Med Chem Lett, 1996).

Legend:
[1] = molecular target: T1, D(4) dopamine receptor (Homo sapiens, UniProt P21917); assay: Binding affinity at cloned human Dopamine receptor D4 expressed in HEK 293 cells, using [3H]nemonapride as radioligand; type: cell-based, HEK293
T1 sequence (P21917 whole entry): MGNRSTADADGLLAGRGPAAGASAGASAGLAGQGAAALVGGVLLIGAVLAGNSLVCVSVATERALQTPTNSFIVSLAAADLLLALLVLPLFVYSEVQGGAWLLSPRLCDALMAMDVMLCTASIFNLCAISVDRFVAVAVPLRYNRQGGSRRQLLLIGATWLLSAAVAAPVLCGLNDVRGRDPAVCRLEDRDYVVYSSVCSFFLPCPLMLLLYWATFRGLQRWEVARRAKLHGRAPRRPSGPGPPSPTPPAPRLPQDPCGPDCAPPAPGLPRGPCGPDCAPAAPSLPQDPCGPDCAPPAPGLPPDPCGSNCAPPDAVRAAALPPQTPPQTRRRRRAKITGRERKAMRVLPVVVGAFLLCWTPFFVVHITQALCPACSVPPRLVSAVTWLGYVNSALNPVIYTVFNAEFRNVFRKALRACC

[2] = molecular target: Dopamine receptors; D2 & D4 (Homo sapiens) (UniProt P14416+P21917); assay: Selectivity of D2 receptor over D4 receptor; type: protein assay
[3] = molecular target: D(2) dopamine receptor (Homo sapiens, UniProt P14416); assay: Binding affinity at cloned human Dopamine receptor D2 expressed in CHO cells, using [125I]iodosulpiride as radioligand; type: cell-based
Chain of D(2) dopamine receptor (P14416 whole entry): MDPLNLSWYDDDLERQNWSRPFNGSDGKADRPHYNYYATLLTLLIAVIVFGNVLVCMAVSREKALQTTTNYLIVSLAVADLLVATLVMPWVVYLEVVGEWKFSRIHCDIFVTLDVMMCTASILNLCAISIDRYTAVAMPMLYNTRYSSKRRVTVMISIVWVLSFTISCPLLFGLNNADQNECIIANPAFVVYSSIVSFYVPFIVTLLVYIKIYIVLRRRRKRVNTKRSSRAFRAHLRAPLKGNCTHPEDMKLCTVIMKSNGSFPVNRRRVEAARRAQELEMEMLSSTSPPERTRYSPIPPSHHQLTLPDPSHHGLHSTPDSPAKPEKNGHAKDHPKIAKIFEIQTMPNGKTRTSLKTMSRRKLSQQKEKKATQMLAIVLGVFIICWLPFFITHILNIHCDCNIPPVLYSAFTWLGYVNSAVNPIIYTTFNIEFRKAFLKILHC

Chain of Dopamine receptors; D2 & D4 (Homo sapiens) (P14416 whole entry, looked up, one chain of several): as the sequence (P14416 whole entry) above

Ki [1] [nM] | Selectivity [2] | Ki [3] [nM] | SMILES
12.6 | 2 | 20 | COc1ccccc1N1CCN(CCCCNC(=O)C(C)(C)C)CC1
7.94 | 100 | 794 | CC1(C(=O)NCCN2CCN(c3ccc(Cl)cc3)CC2)CCCCC1
100 | 3 | 251 | CC(C)(C)C(=O)NCCCCN1CCN(c2cccc(Cl)c2)CC1
31.6 | 50 | 1580 | CCCCC(C)(C)C(=O)NCCN1CCN(c2ccc(Cl)cc2)CC1
126 | 3 | 398 | CC(C)(C)C(=O)NCCCCCN1CCN(c2ccc(Cl)cc2)CC1
158 | 3 | 398 | O=C(NCCCCN1CCN(c2ccc(Cl)cc2)CC1)c1ccccc1
20 | 30 | 631 | O=C(NCCCCN1CCN(c2ccc(Cl)cc2)CC1)C12CC3CC(CC(C3)C1)C2
12.6 | 125 | 1580 | CCCC(C)(C)C(=O)NCCCCN1CCN(c2ccc(Cl)cc2)CC1
25.1 | 100 | 2510 | CC(C)(C)C(=O)NCCN1CCN(c2ccc(Cl)cc2)CC1
15.8 | 10 | 158 | COc1cc(Cl)ccc1N1CCN(CCCCNC(=O)C(C)(C)C)CC1
63.1 | – | 398 | CC(C)(C)C(=O)NCCCCN1CCN2c3ccc(Cl)cc3CCC2C1 (stereo not drawn)
63.1 | – | 1580 | CC1CN(CCCCNC(=O)C(C)(C)C)CCN1c1ccc(Cl)cc1 (stereo not drawn)
50.1 | 80 | 3980 | CC(C)(C)C(=O)NCCCCN1CCN(c2ccc(C(F)(F)F)cc2)CC1
7.94 | 320 | – | CCC(C)(C)C(=O)NCCN1CCN(c2ccc(Cl)cc2)CC1
5.01 | 80 | 398 | O=C(NCCN1CCN(c2ccc(Cl)cc2)CC1)C12CC3CC(CC(C3)C1)C2
10 | 100 | 1000 | CC1(C(=O)NCCCCN2CCN(c3ccc(Cl)cc3)CC2)CCCCC1
15.8 | 63 | 1000 | CCC(C)(C)C(=O)NCCCCN1CCN(c2ccc(Cl)cc2)CC1
7.94 | 320 | 2510 | CCCC(C)(C)C(=O)NCCN1CCN(c2ccc(Cl)cc2)CC1
31.6 | 50 | 1580 | CC(C)(C)C(=O)NCCCCN1CCN(c2ccc(Br)cc2)CC1

SMILES | Ki [1] [nM] | Selectivity [2] | Ki [3] [nM]
CC(C)(C)C(=O)NCCCN1CCN(c2ccc(Cl)cc2)CC1 | 200 | > 50 | > 10000
CC(C)(C)C(=O)NCCCCN1CCN(c2ccc(F)cc2)CC1 | 126 | 15 | 2000
CC(C)C(=O)NCCCCN1CCN(c2ccc(Cl)cc2)CC1 | 126 | 16 | 2000
CC(C)(C)C(=O)NCCCCN1CCN(c2ccccc2)CC1 | 316 | 3 | 794
COc1ccc(N2CCN(CCCCNC(=O)C(C)(C)C)CC2)cc1 | 316 | > 30 | > 10000
CC(=O)NCCCCN1CCN(c2ccc(Cl)cc2)CC1 | 1260 | 1 | 1580
CC(C)(C)C(=O)NCCCCN1CCN(c2ccccc2Cl)CC1 | 79.4 | 1 | 63.1
CC(C)(C)C(=O)NCCCCN1CCN(c2ccc(Cl)cc2)CC1 | 12.6 | 200 | 2510
